# Data reported in patent publication US12350269B2 (Alexion Pharmaceuticals, Inc., priority 2015, dated 2025).
# Legend:
# ARK5 = target: T1, ARK5 (Homo sapiens, UniProt O60285); test: Purified kinase assay (Millipore); assay type: biochemical; details: 300 nM ATP
# T1 construct: purchased Millipore
# Description: (§1) Purified Kinase Assays: Performed at Millipore at a fixed concentration of 300 nM ATP. A 10-point concentration curve was used to determine IC (Inhibitory Concentration).
# CHK1 = target: T2, CHK1 (Homo sapiens, UniProt O14757); test: Purified kinase assay (Millipore); assay type: biochemical; details: 300 nM ATP
# T2 construct: purchased Millipore
# Description: as §1
# FLT3 = target: T3, FLT3 (Homo sapiens, UniProt P36888); test: Purified kinase assay (Millipore); assay type: biochemical; details: 300 nM ATP
# T3 construct: purchased Millipore
# Description: as §1
# FLT4 = target: T4, FLT4 (Homo sapiens, UniProt P35916); test: Purified kinase assay (Millipore); assay type: biochemical; details: 300 nM ATP
# T4 construct: purchased Millipore
# Description: as §1
# FMS = target: T5, FMS (Homo sapiens, UniProt P07333); test: Purified kinase assay (Millipore); assay type: biochemical; details: 300 nM ATP
# T5 construct: purchased Millipore
# Description: as §1
# GCK = target: T6, GCK (Homo sapiens, UniProt Q12851); test: Purified kinase assay (Millipore); assay type: biochemical; details: 300 nM ATP
# T6 construct: purchased Millipore
# Description: as §1
# ITK = target: T7, ITK (Homo sapiens, UniProt Q08881); test: Purified kinase assay (Millipore); assay type: biochemical; details: 300 nM ATP
# T7 construct: purchased Millipore
# Description: as §1
# MARK1 = target: T8, MARK1 (Homo sapiens, UniProt Q9P0L2); test: Purified kinase assay (Millipore); assay type: biochemical; details: 300 nM ATP
# T8 construct: purchased Millipore
# Description: as §1
# MLK1 = target: T9, MLK1 (Homo sapiens, UniProt P80192); test: Purified kinase assay (Millipore); assay type: biochemical; details: 300 nM ATP
# T9 construct: purchased Millipore
# Description: as §1
# MST1 = target: T10, MST1 (Homo sapiens, UniProt Q13043); test: Purified kinase assay (Millipore); assay type: biochemical; details: 300 nM ATP
# T10 construct: purchased Millipore
# Description: as §1
# MST2 = target: T11, MST2 (Homo sapiens, UniProt Q13188); test: Purified kinase assay (Millipore); assay type: biochemical; details: 300 nM ATP
# T11 construct: purchased Millipore
# Description: as §1
# PAR1B-a = target: T12, PAR1B-a (Homo sapiens, UniProt Q7KZI7); test: Purified kinase assay (Millipore); assay type: biochemical; details: 300 nM ATP
# T12 construct: purchased Millipore
# Description: as §1
# RET = target: T13, RET (Homo sapiens, UniProt P07949); test: Purified kinase assay (Millipore); assay type: biochemical; details: 300 nM ATP
# T13 construct: purchased Millipore
# Description: as §1
# RSK2 = target: T14, RSK2 (Homo sapiens, UniProt P51812); test: Purified kinase assay (Millipore); assay type: biochemical; details: 300 nM ATP
# T14 construct: purchased Millipore
# Description: as §1
# RSK4 = target: T15, RSK4 (Homo sapiens, UniProt Q9UK32); test: Purified kinase assay (Millipore); assay type: biochemical; details: 300 nM ATP
# T15 construct: purchased Millipore
# Description: as §1
# TYK2 = target: T16, TYK2 (Homo sapiens, UniProt P29597); test: Purified kinase assay (Millipore); assay type: biochemical; details: 300 nM ATP
# T16 construct: purchased Millipore
# Description: as §1
# JAK1/3 = test: Healthy normal human whole blood assay: T-cell, IL2 stimulation, pSTAT5 Y694 readout; assay type: cell-based
# Zap70 = test: Healthy normal human whole blood assay: T-cell, TCR stimulation, pERK Y204 readout; assay type: cell-based
# 270 kinase panel = 270 kinase panel screen (Millipore); assay type: biochemical; details: the 24 kinases listed in Table 1
# 15 DLBCL cell lines = test: DLBCL cell line panel: caspase 3 cleavage and Edu incorporation by FACS; assay type: cell-based
# Description: DLBCL Cell Line Viability Assays: Cell lines, purchased from ATCC, were screened using the CellTiter Glo (Promega) assay in 384 well plates using a ten-point concentration response curve to generate IC50's. Each IC50 value is an average of at least four replicate experiments. Subsequent analysis using a FACS based caspase 3 cleavage detection kit (BD Biosciences) and Edu incorporation were performed.
# In a panel of 15 cell lines representing both ABC and GCB subtypes, 9 underwent apoptosis and an additional 2 underwent cell cycle arrest.
# FIG. 1 and FIG. 2 depicts bar graphs that show the percent inhibition of Edu incorporation and percent induction of caspase 3 cleavage by FACS analysis, respectively.
# [1] = system: WT BTK-transfected TMD8 cells; test: Cell growth of transfected TMD8 cells (Muse Count & Viability); assay type: cell-based; details: 250 nM, 7 days
# Description: Cell transfection, cell count and viability assay: TMD8 cells were transfected with constructs of WT BTK or BTK^C481S mutants using kit V, Program U-13 on Amaxa Nucleofector, according to the manufacturer's protocols (Amaxa, Cologne, Germany). After transfection, the cells were co-cultured with NKTert cells in a 24-well plate for 24 hrs for recovery.
# T11 sequence (Q13188 whole entry): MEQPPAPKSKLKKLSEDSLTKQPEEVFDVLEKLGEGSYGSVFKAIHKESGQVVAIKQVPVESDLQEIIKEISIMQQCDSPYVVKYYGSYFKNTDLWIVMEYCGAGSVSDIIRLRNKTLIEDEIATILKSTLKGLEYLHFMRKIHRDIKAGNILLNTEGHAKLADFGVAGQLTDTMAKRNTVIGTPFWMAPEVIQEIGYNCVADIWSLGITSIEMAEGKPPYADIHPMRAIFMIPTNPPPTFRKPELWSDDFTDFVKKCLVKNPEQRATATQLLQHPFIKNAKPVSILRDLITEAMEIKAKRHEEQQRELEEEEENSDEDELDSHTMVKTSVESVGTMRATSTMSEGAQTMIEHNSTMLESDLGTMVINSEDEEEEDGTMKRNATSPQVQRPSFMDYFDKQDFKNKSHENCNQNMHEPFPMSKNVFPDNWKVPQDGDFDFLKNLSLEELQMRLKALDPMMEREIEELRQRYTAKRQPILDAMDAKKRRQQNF
# T14 sequence (P51812 whole entry): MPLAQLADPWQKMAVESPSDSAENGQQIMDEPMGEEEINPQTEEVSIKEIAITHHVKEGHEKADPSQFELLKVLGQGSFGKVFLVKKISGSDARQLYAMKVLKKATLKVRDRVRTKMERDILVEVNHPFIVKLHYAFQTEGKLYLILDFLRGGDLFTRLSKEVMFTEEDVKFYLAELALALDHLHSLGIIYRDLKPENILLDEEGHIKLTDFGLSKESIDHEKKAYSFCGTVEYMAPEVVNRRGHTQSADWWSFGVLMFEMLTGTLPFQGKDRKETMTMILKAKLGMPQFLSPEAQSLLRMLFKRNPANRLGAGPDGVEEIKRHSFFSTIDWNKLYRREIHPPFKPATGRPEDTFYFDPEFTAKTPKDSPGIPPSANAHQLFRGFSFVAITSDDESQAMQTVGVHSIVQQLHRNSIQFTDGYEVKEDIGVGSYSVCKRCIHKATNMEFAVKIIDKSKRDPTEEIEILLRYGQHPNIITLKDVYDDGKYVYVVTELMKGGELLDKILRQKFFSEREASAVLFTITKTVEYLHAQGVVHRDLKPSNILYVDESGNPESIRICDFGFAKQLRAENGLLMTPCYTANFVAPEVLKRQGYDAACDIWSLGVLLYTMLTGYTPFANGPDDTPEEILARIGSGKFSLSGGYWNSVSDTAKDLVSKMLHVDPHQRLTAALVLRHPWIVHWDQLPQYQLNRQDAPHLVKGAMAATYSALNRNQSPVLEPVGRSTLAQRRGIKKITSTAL
# T3 sequence (P36888 27-993): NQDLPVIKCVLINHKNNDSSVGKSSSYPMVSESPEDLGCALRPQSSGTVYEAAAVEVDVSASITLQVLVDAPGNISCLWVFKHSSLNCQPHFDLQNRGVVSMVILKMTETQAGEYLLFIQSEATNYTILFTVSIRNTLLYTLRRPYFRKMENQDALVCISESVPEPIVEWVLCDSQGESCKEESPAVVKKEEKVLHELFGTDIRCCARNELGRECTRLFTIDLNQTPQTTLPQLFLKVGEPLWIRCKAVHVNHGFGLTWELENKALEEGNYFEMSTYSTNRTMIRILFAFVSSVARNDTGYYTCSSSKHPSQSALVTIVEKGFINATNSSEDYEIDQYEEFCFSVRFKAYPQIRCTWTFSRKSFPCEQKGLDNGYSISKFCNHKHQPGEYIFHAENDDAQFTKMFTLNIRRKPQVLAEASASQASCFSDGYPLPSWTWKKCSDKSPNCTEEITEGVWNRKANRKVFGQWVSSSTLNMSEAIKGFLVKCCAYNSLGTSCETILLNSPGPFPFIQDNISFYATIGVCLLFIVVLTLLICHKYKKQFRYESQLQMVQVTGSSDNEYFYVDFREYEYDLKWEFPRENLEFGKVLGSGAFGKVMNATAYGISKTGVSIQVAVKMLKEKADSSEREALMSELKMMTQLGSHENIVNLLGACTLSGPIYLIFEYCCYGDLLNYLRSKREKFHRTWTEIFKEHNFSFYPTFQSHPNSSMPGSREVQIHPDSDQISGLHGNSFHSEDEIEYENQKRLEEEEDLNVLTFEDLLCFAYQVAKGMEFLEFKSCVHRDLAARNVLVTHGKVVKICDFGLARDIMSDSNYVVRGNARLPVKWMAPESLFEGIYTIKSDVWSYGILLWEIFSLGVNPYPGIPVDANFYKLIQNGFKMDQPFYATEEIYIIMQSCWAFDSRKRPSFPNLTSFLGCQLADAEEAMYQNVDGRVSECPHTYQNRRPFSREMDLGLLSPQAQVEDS
# T10 sequence (Q13043 whole entry): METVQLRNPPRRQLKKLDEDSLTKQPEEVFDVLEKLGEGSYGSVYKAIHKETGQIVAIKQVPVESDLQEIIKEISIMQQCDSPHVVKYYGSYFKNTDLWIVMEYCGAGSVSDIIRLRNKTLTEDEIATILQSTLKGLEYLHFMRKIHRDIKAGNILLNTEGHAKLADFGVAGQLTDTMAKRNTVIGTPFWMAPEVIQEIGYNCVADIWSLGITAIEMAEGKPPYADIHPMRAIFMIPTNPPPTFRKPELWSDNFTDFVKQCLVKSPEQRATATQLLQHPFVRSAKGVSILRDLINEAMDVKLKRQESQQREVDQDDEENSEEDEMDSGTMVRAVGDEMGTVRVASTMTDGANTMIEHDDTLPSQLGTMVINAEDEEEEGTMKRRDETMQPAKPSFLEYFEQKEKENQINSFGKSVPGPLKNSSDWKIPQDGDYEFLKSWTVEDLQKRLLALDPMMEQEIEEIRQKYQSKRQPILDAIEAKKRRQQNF
# T15 sequence (Q9UK32 whole entry): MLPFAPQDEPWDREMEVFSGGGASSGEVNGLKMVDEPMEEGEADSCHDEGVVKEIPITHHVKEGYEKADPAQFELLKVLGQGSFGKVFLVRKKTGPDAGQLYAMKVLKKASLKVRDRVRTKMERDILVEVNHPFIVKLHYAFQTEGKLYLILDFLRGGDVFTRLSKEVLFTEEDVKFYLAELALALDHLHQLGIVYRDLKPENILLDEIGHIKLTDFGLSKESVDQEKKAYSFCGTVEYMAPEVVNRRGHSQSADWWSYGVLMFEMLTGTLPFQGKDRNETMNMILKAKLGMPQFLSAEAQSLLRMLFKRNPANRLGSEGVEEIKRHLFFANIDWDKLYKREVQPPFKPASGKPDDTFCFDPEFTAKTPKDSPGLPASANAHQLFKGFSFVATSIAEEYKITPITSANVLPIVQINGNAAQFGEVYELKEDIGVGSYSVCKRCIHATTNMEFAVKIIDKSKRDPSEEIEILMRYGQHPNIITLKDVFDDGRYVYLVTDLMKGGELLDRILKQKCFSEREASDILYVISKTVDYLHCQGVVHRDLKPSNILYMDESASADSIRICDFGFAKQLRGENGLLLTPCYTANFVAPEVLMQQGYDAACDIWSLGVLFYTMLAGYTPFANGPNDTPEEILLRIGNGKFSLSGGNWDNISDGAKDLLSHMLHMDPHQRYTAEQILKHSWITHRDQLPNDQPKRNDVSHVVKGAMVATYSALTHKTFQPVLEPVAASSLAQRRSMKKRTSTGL
# T16 sequence (P29597 whole entry): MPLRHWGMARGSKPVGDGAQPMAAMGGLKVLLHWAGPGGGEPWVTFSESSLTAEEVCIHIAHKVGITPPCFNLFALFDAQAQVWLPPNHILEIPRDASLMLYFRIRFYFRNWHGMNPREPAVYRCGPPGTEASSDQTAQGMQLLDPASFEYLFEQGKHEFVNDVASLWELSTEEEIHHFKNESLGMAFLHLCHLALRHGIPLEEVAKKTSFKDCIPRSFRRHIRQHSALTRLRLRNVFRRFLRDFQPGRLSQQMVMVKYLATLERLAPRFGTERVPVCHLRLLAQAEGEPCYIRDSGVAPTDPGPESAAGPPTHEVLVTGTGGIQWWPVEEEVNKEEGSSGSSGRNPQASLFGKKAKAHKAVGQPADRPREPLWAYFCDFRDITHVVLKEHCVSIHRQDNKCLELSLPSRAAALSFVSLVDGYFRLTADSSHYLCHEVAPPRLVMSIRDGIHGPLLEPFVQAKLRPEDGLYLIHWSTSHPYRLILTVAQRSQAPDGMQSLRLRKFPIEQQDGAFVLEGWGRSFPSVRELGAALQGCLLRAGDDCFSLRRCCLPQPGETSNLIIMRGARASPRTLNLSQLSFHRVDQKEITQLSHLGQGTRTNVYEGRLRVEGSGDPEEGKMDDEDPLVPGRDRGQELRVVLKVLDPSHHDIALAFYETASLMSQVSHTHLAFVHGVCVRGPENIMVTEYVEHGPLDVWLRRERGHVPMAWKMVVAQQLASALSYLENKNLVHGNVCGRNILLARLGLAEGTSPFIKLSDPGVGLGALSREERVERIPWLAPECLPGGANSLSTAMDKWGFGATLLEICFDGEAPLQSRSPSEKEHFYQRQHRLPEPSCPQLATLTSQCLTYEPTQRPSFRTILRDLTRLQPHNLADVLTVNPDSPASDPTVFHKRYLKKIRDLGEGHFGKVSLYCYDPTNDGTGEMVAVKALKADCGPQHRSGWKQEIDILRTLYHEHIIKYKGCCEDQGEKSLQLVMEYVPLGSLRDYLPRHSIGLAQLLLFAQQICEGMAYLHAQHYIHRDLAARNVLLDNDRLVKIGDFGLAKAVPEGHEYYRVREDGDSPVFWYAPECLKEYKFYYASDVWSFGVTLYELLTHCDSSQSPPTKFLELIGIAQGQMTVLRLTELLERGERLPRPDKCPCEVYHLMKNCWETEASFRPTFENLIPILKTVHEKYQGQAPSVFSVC
compound,measurement,setting,value
"CCS(=O)(=O)N1CCN(c2ccc(Nc3ncc(C(N)=O)c(NC4CC4)n3)cc2)CC1 [cerdulatinib, 4-(cyclopropylamino)-2-(4-(4-(ethylsulfonyl)piperazin-1-yl)phenylamino)pyrimidine-5-carboxamide]",IC50,ARK5,4 nM
same,IC50,CHK1,42 nM
same,IC50,FLT3,90 nM
same,IC50,FLT4,51 nM
same,IC50,FMS,5 nM
same,IC50,GCK,18 nM
same,IC50,ITK,194 nM
same,IC50,MARK1,10 nM
same,IC50,MLK1,5 nM
same,IC50,MST1,4 nM
same,IC50,MST2,15 nM
same,IC50,PAR1B-a,13 nM
same,IC50,RET,105 nM
same,IC50,RSK2,20 nM
same,IC50,RSK4,28 nM
same,IC50,TYK2,0.5 nM
same,IC50,JAK1/3,200 nM
same,IC50,Zap70,> 4000 nM
same,inhibition of the purified kinases of Table 1 in the panel screen,270 kinase panel,> 80%
same,activity against DLBCL cell lines,15 DLBCL cell lines; 2 μM,broadly active
same,induction of apoptosis in cell lines,15 DLBCL cell lines; 2 μM,induced apoptosis in the majority of cell lines
same,additional cell lines that underwent cell cycle arrest,15 DLBCL cell lines; panel of 15 cell lines,2
same,number of cell lines that underwent apoptosis,"15 DLBCL cell lines; panel of 15 cell lines, ABC and GCB subtypes",9
same,"response of DB, TOLEDO, and RCK8 cell lines",15 DLBCL cell lines; three of the 15 cell lines,resistant
same,concentration required to induce apoptosis and/or cell cycle arrest,"15 DLBCL cell lines; variable, generally observed",~2 µM
same,cell growth,[1],similarly inhibited
